≈ marks a conversion by molar mass, not a printed value. Like-named read-outs stand apart in the source and are kept apart here. Residues, ends and D or L forms follow the SMILES beside them.
Columns and labels:
Candida auris [1] = assay: Antifungal MIC in RPMI medium; settings: RPMI medium rich in cations
Coccidioides sp. = format: cell-based; settings: Table 8
F. graminearum = settings: in vitro, low cationic conditions; F. graminearum
Aspergillus fumigatus = assay: MIC, CLSI M27/M38, half-strength potato dextrose broth (Example 2); format: cell-based; settings: Table 8; Aspergillus fumigatus AF293
C. parapsilosis = assay: as above; format: cell-based, Candida parapsilosis; settings: Table 8; C. parapsilosis ATCC 22019
Description: MICs were determined at 24-72 hours.

P. capsici [2] = assay: In planta assay on tomato leaves (Example 1); format: in vivo; settings: applied on tomato leaves
Excerpt: Antifungal activity in planta.

[3] = tested on: Salmonella Typhimurium var. Copenhagen; assay: Antibacterial growth inhibition in Mueller-Hinton media, OD600 (Example 3); format: cell-based; settings: Table 15; S. Typhimurium var. Copenhagen; MH medium
P. capsici [4] = assay: Antifungal MIC assay in SFM culture media (Example 1); format: cell-based; settings: in vitro, low cationic conditions
[5] = tested on: Enterotoxigenic E. coli-F4; assay: Antibacterial growth inhibition in Mueller-Hinton media, OD600 (Example 3); format: cell-based; settings: Table 15, MH medium
Description: Salmonella Typhimurium var. Copenhagen, Enterotoxigenic E. coli-F4 and Listeria monocytogens (F5244) strains were grown overnight on an LB agar plate at 37_C. A small number of bacteria was scraped from the plate and added to Mueller-Hinton (MH) growth media and grown to log phase. Cells were diluted to 1-3×10^6 CFU/mL and 50 μl were added to each well in a polypropylene 96-well plate. Synthesized peptide GMA4C_V1A was diluted into 0.2% BSA, 0.0100 acetic acid solution and added to the concentration of 0.2, 0.4, 0.80, 1.6, 3.25, 7.5, 15, 30 and 60 and 120 μM. Then, 50 μl of each peptide solution was added to 50 μl of bacterial cells. Plates were parafilmed and incubated at 37° C. overnight. The concentrations at which bacterial growth inhibition was determined based on the OD600 nm value at each concentration relative to the OD600 nm value of MH medium alone and that of bacterial growth in MH medium without any peptide.

Candida auris [6] = assay: MIC, CLSI M27/M38, half-strength potato dextrose broth (Example 2); format: cell-based; settings: Table 8
F. oxysporum = assay: Antifungal MIC assay in SFM culture media (Example 1); format: cell-based
B. cinerea = settings: B. cinerea
Candida glabrata = assay: Antifungal MIC in RPMI medium; settings: RPMI medium rich in cations
[7] = tested on: Listeria monocytogens (F5244); assay: Antibacterial growth inhibition in Mueller-Hinton media, OD600 (Example 3); format: cell-based; settings: Table 15; L. monocytogenes F5244; MH medium
Candida albicans = assay: MIC, CLSI M27/M38, half-strength potato dextrose broth (Example 2); format: cell-based; settings: Table 8

## CC[C@H](C)[C@H](NC(=O)[C@H](CCCNC(=N)N)NC(=O)[C@@H](NC(=O)[C@H](CS)NC(=O)[C@H](Cc1ccccc1)NC(=O)[C@H](CS)NC(=O)[C@H](CCCNC(=N)N)NC(=O)[C@H](CCCNC(=N)N)NC(=O)[C@H](CCCNC(=N)N)NC(=O)[C@H](Cc1ccccc1)NC(=O)CNC(=O)[C@H](CCCCN)NC(=O)[C@H](CS)NC(=O)[C@H](CCCNC(=N)N)NC(=O)CNC(=O)CN)[C@@H](C)O)C(=O)N[C@@H](CS)C(N)=O [GMA4C_V1A] (H-GGRCKGFRRRCFCTRIC-NH2; N-terminus assumed)
Candida auris [1]
  Antifungal activity against C. auris: show antifungal activity
Coccidioides sp.; Coccidioides sp. Cocci 1
  MIC (μg/ml) 100%: 8 µg/mL (≈ 3.96 µM)
Coccidioides sp.; Coccidioides sp. Cocci2
  MIC (μg/ml) 100%: 4 µg/mL (≈ 1.98 µM)
Coccidioides sp.; Coccidioides sp. DI17-143
  MIC (μg/ml) 100%: 8 µg/mL (≈ 3.96 µM)
F. graminearum
  Antifungal activity relative to the wild-type GMA4C_AC control: equivalent
Aspergillus fumigatus
  MIC (μg/ml) 100%: 32 µg/mL (≈ 15.9 µM)
C. parapsilosis
  MIC (μg/ml) 100%: 4 µg/mL (≈ 1.98 µM)
P. capsici [2]
  Reduction of disease symptoms caused by P. capsici: more effective
[3]
  Concentrations at which growth inhibition was observed: 15 to 60 µM
P. capsici [4]
  Antifungal activity relative to the wild-type GMA4C_AC control: equivalent
[5]
  Concentrations at which growth inhibition was observed: 7.5 to 60 µM
Candida auris [6]; Candida auris DI17-46
  MIC (μg/ml) 100%: 8 µg/mL (≈ 3.96 µM)
Candida auris [6]; Candida auris DI17-47
  MIC (μg/ml) 100%: 8 µg/mL (≈ 3.96 µM)
Candida auris [6]; Candida auris DI17-48
  MIC (μg/ml) 100%: 8 µg/mL (≈ 3.96 µM)
F. oxysporum; Table 2, SFM culture media
  F. oxysporum MIC: 6 μuM
F. oxysporum; in vitro, low cationic conditions, F. oxysporum
  Antifungal activity relative to the wild-type GMA4C_AC control: equivalent
B. cinerea; 100 mM NaCl or 100 mM KCl
  Potency relative to GMA4C_AC in presence of cations: 2 fold
B. cinerea; in presence of 2 mM CaCl2, peptide 6 μM
  Fungal growth inhibition at 6 μM: inhibit fungal growth
B. cinerea; in vitro, low cationic conditions
  Antifungal activity relative to the wild-type GMA4C_AC control: equivalent
Candida glabrata
  Antifungal activity against C. glabrata: show antifungal activity
[7]
  Concentrations at which growth inhibition was observed: 15 to 30 µM
Candida albicans; Candida albicans ATCC 90028
  MIC (μg/ml) 100%: 8 µg/mL (≈ 3.96 µM)
Candida albicans; Candida albicans CA3
  MIC (μg/ml) 100%: 8 µg/mL (≈ 3.96 µM)
Candida albicans; Candida albicans SC5314
  MIC (μg/ml) 100%: 8 µg/mL (≈ 3.96 µM)
